Type in all cases: functional, subcellular
Assay [1] is filed under the species Rattus norvegicus. The assay can be described thus: Increase in [3H]GABA uptake initial velocity in Wistar rat synaptosomes measured per mg of protein at 100 uM by scintillation counting (reference value: 205.4 +/- 5 pmol/min*mg of protein).
The species named for assay [2] is Rattus norvegicus. Kind of assay: Increase in [3H]GABA uptake initial velocity in Wistar rat synaptosomes measured per mg of protein at 200 uM by scintillation counting.
Assay [3] is filed under the species Rattus norvegicus. The assay can be described thus: Increase in [3H]GABA uptake initial velocity in Wistar rat synaptosomes measured per mg of protein pretreated at 100 uM for 20 mins by scintillation counting (reference value: 153 +/- 7.7 pmol/min*mg of protein).
For assay [4], the species on record is Rattus norvegicus. Kind of assay: Increase in [3H]GABA uptake initial velocity in Wistar rat synaptosomes measured per mg of protein pretreated at 200 uM for 20 mins by scintillation counting.
For assay [5], the species on record is Rattus norvegicus. Kind of assay: Increase in [3H]GABA uptake initial velocity in Wistar rat synaptosomes measured per mg of protein pretreated at 100 uM for 20 mins with combined application of 30 uM NO-711 GAT1 blocker by scintillation counting.
For assay [6], the species on record is Rattus norvegicus. The assay can be described thus: Increase in [3H]GABA uptake initial velocity in Wistar rat synaptosomes measured per mg of protein pretreated at 100 uM for 20 mins with combined application of 50 uM SNAP5114 GAT3 blocker by scintillation counting.

Calls of active or inactive are those of the source. The calls are words filed in the database; no cut-off is given here.

These results are taken from ChEMBL document CHEMBL3593185, “Synthesis of new fluorinated analogs of GABA, Pregabalin bioisosteres, and their effects on [(3)H]GABA uptake by rat brain nerve terminals” (Bioorg Med Chem, 2015).

As for `NC[C@@H](CC(=O)O)C(F)(F)F`, the Activity in the assay filed under Rattus norvegicus [1] turned out to be 211 pmol/min/mg; in the assay listed under Rattus norvegicus [3], 179 pmol/min/mg; in the assay filed under Rattus norvegicus [5] it was 23.7 pmol/min/mg; in the assay listed under Rattus norvegicus [6], 120 pmol/min/mg. Further, in the assay listed under Rattus norvegicus [2], the outcome was inactive. In the assay listed under Rattus norvegicus [4], the outcome was Active.
For `NCC(CC(=O)O)C(F)(F)C(F)F` (racemic), the Activity came out at 198 pmol/min/mg in the assay filed under Rattus norvegicus [1], 188 pmol/min/mg in the assay filed under Rattus norvegicus [3], 27.4 pmol/min/mg in the assay filed under Rattus norvegicus [5] and 125 pmol/min/mg in the assay listed under Rattus norvegicus [6]. In addition, the result in the assay filed under Rattus norvegicus [2] was inactive. Besides, in the assay filed under Rattus norvegicus [4], the outcome was Active.
As to `NC[C@@](O)(CC(=O)O)C(F)(F)F`, the Activity in the assay filed under Rattus norvegicus [1] is 194 pmol/min/mg; in the assay listed under Rattus norvegicus [3], 189 pmol/min/mg; in the assay filed under Rattus norvegicus [5] it was 27.9 pmol/min/mg; in the assay listed under Rattus norvegicus [6] it was 128 pmol/min/mg. Further, the outcome in the assay listed under Rattus norvegicus [2] was inactive. In addition, in the assay listed under Rattus norvegicus [4], the outcome was Active.
On to `CC(C)C[C@H](CN)CC(=O)O`, for which the Activity in the assay filed under Rattus norvegicus [1] amounted to 211 pmol/min/mg; in the assay filed under Rattus norvegicus [3], 182 pmol/min/mg. Further, in the assay filed under Rattus norvegicus [5], the outcome was inactive.
